Legend:
[1] = target: Gamma-secretase (Homo sapiens) (UniProt Q96BI3+Q9NZ42+Q8WW43+P49768+Q92542+P49810); assay: Inhibition of gamma-secretase-mediated APP cleavage in human SNC cells by ELISA; format: cell-based
[2] = Oxidative metabolic stability in human liver microsomes assessed as compound remaining at 1 uM after 30 mins in presence of 1 mM NADPH; format: ADME, Microsome; conditions: liver microsomes, read-out: Stability
[3] = Inhibition of gamma-secretase-mediated notch cleavage after 2 hrs by ELISA
Gamma-secretase = assay: Inhibition of gamma-secretase-mediated notch cleavage in human SNC cells by ELISA; format: cell-based
[4] = Inhibition of gamma-secretase-mediated APP cleavage assessed as amyloid beta40 level after 2 hrs by ELISA
[5] = Oxidative metabolic stability in human liver microsomes assessed as compound remaining at 2 uM after 30 mins in presence of 1 mM UDPGA; format: ADME, Microsome; conditions: liver microsomes, read-out: Stability

SMILES	ED50 [1]	remaining at 0.5 h, 1 µM [2]	IC50 [3]	IC50 (Gamma-secretase)	IC50 [4]	remaining at 0.5 h, 2 µM [5]
CC(C)(C)C1C(=O)c2[nH]ncc2C(C2CC2)N1S(=O)(=O)c1ccc(C(F)(F)F)nc1 (stereo in doubt; 3u)	16 nM	–	–	–	–	–
O=C1c2[nH]ncc2C(C2CC2)N(S(=O)(=O)c2ccc(C(F)(F)F)nc2)C12CC2 (stereo in doubt; 16e)	2680 nM	–	–	–	–	–
O=C1c2[nH]ncc2C(C2CC2)N(S(=O)(=O)c2ccc(C(F)(F)F)cn2)C12CC2 (stereo in doubt; 16i)	26 nM	–	–	–	–	–
C[C@@H]1C(=O)c2[nH]ncc2[C@H](C)N1S(=O)(=O)c1ccc(C(F)(F)F)nc1 (stereo in doubt)	> 10000 nM	62%	2270 nM	> 40000 nM	91 nM	–
O=C1c2[nH]ncc2C(C2CC2)N(S(=O)(=O)c2ccc(C(F)(F)F)nc2)C1c1cc(F)cc(F)c1 (racemic)	> 1000 nM	9%	17 nM	4000 nM	0.7 nM	–
CC1(C)C(=O)c2[nH]ncc2C(C2CC2)N1S(=O)(=O)c1ccc(C(F)(F)F)cc1 (racemic)	60 nM	68%	268 nM	2660 nM	7.3 nM	67%
O=C1c2[nH]ncc2C(C2CC2)N(S(=O)(=O)c2ccc(C(F)(F)F)nc2)C12CC2 (racemic)	7 nM	–	–	–	–	–
CC(C)[C@@H]1c2cn[nH]c2C(=O)CN1S(=O)(=O)c1ccc(Cl)cc1	4000 nM	12%	91 nM	> 40000 nM	3.7 nM	71%
COC[C@H]1C(=O)c2[nH]ncc2[C@@H](C2CC2)N1S(=O)(=O)c1ccc(C(F)(F)F)cc1 (relative stereo)	> 10000 nM	14%	126 nM	> 40000 nM	3.2 nM	–
O=C1CN(S(=O)(=O)c2ccc(C(F)(F)F)cc2)C(C(F)(F)F)c2cn[nH]c21 (configuration not stated)	> 10000 nM	1%	51 nM	> 40000 nM	2.6 nM	6%
CC1C(=O)c2[nH]ncc2C(C2CC2)N1S(=O)(=O)c1ccc(C(F)(F)F)cc1 (configuration not stated)	2340 nM	62%	12 nM	> 40000 nM	0.5 nM	67%
C[C@H]1C(=O)c2[nH]ncc2[C@@H](C2CC2)N1S(=O)(=O)c1ccc(C(F)(F)F)nc1 (relative stereo)	> 10000 nM	72%	21 nM	> 40000 nM	0.6 nM	59%
CC(C)(C)C1C(=O)c2[nH]ncc2C(C2CC2)N1S(=O)(=O)c1ccc(C(F)(F)F)nc1 (stereo in doubt; 3t)	0.6 nM	–	–	–	–	–
O=C1c2[nH]ncc2[C@@H](C2CC2)N(S(=O)(=O)c2ccc(C(F)(F)F)nc2)[C@@H]1C1CC1 (relative stereo)	374 nM	21%	66 nM	25100 nM	3 nM	87%
O=C1c2[nH]ncc2C(C2CC2)N(S(=O)(=O)c2ccc(C(F)(F)F)cn2)C12CC2 (racemic)	87 nM	–	–	–	–	–
O=C1c2[nH]ncc2C(C2CC2)N(S(=O)(=O)c2ccc(C(F)(F)F)cn2)C12CC2 (racemic) [4'-CYCLOPROPYL-5'-(5-(TRIFLUORO METHYL)PYRIDIN-2-YL SULFONYL)-4',5'-DIHYDROSPIRO[CYCLOPROPANE-1,6'-PYRAZOLO[4,3-C]PYRIDIN]-7'(1'H)-ONE (ENANTIOMERIC MIX)]	–	76%	502 nM	6210 nM	24 nM	89%
O=C1c2[nH]ncc2C(C2CC2)N(S(=O)(=O)c2ccc(C(F)(F)F)nc2)C12CC2 (stereo in doubt; 16f)	4 nM	–	–	–	–	–
C[C@@H]1c2cn[nH]c2C(=O)[C@H](C)N1S(=O)(=O)c1ccc(C(F)(F)F)nc1 (stereo in doubt)	1100 nM	67%	144 nM	18300 nM	13.2 nM	91%
O=C1c2[nH]ncc2[C@@H](C2CC2)N(S(=O)(=O)c2ccc(C(F)(F)F)nc2)[C@H]1C1CC1 (relative stereo)	130 nM	77%	10 nM	6700 nM	0.3 nM	75%
CC(C)[C@H]1C(=O)c2[nH]ncc2[C@@H](C(C)C)N1S(=O)(=O)c1ccc(C(F)(F)F)cc1 (relative stereo)	33 nM	0%	14 nM	2300 nM	0.5 nM	82%
O=C1c2[nH]ncc2C(C2CC2)N(S(=O)(=O)c2ccc(C(F)(F)F)cn2)C12CC2 (stereo in doubt; 16h)	1850 nM	–	–	–	–	–
O=S(=O)(c1ccc(C(F)(F)F)nc1)N1C(C2CC2)c2cn[nH]c2C(F)(F)C12CC2 (stereo in doubt; 17b)	0.3 nM	–	–	–	–	–
CCC1c2cn[nH]c2C(=O)CN1S(=O)(=O)c1ccc(C(F)(F)F)cc1 (configuration not stated)	> 10000 nM	19%	–	> 40000 nM	6.5 nM	–
O=C1CN(S(=O)(=O)c2ccc(C(F)(F)F)cc2)[C@H](C2CC2)c2cn[nH]c21	> 10000 nM	–	354 nM	> 40000 nM	9.1 nM	–
O=S(=O)(c1ccc(C(F)(F)F)nc1)N1C(C2CC2)c2cn[nH]c2C(F)(F)C12CC2 (racemic)	0.5 nM	–	–	–	–	–
O=S(=O)(c1ccc(C(F)(F)F)nc1)N1C(C2CC2)c2cn[nH]c2C(F)(F)C12CC2 (stereo in doubt; 17c)	86 nM	–	–	–	–	–

Now from value to compound:

ED50 [1]	remaining at 0.5 h, 1 µM [2]	IC50 [3]	IC50 (Gamma-secretase)	IC50 [4]	remaining at 0.5 h, 2 µM [5]	SMILES
11 nM	2%	12 nM	574 nM	0.7 nM	42%	CC(C)C1c2cn[nH]c2C(F)(F)CN1S(=O)(=O)c1ccc(Cl)cc1 (racemic)
4 nM	84%	10 nM	403 nM	0.9 nM	35%	O=S(=O)(c1ccc(C(F)(F)F)cc1)N1CC(F)(F)c2[nH]ncc2C1C(F)(F)F (racemic)
2 nM	3%	8 nM	235 nM	0.4 nM	–	O=C1c2[nH]ncc2C(C2CC2)N(S(=O)(=O)c2ccc(C(F)(F)F)cc2)C12CCCC2 (racemic)
11 nM	85%	69 nM	995 nM	1.9 nM	84%	O=C1c2[nH]ncc2C(C2CC2)N(S(=O)(=O)c2ccc(C(F)(F)F)cc2)C12CC2 (racemic)
–	86%	35 nM	688 nM	1.8 nM	91%	O=C1c2[nH]ncc2C(C2CC2)N(S(=O)(=O)c2ccc(C(F)(F)F)nc2)C12CC2 (racemic) [4'-CYCLO PROPYL-5'-(6-(TRIFLUORO METHYL)PYRIDIN-3-YL SULFONYL)-4',5'-DIHYDROSPIRO[CYCLOPROPANE-1,6'-PYRAZOLO[4,3-C]PYRIDIN]-7'(1'H)-ONE (ENANTIOMERIC MIX)]
0.2 nM	43%	3 nM	13 nM	0.1 nM	41%	O=S(=O)(c1ccc(C(F)(F)F)nc1)N1[C@H](C2CC2)c2cn[nH]c2C(F)(F)[C@H]1C1CC1 (stereo in doubt)
6 nM	6%	–	546 nM	0.3 nM	77%	CC[C@@H]1C(=O)c2[nH]ncc2[C@H](CC)N1S(=O)(=O)c1ccc(Cl)cc1 (stereo in doubt)
0.5 nM	53%	3 nM	34 nM	0.3 nM	61%	O=S(=O)(c1ccc(C(F)(F)F)nc1)N1[C@@H](C2CC2)c2cn[nH]c2C(F)(F)[C@@H]1C1CC1 (stereo in doubt)
7 nM	75%	18 nM	418 nM	1 nM	46%	C[C@@H]1N(S(=O)(=O)c2ccc(C(F)(F)F)cc2)[C@H](C2CC2)c2cn[nH]c2C1(F)F (relative stereo)
6 nM	22%	50 nM	304 nM	1.8 nM	66%	CC[C@@H]1c2cn[nH]c2C(F)(F)[C@H](CC)N1S(=O)(=O)c1ccc(C(F)(F)F)nc1 (relative stereo)
7 nM	1%	18 nM	576 nM	2 nM	–	O=C1c2[nH]ncc2C(C2CC2)N(S(=O)(=O)c2ccc(Cl)s2)C12CC2 (racemic)
6 nM	76%	42 nM	771 nM	1.5 nM	64%	O=S(=O)(c1ccc(C(F)(F)F)cc1)N1C(C2CC2)c2cn[nH]c2C(F)(F)C1C1CC1 (configuration not stated)
6 nM	79%	20 nM	358 nM	1.2 nM	59%	C[C@@H]1N(S(=O)(=O)c2ccc(C(F)(F)F)nc2)[C@H](C2CC2)c2cn[nH]c2C1(F)F (relative stereo)
–	8%	6 nM	71 nM	0.2 nM	66%	CC(C)(C)C1C(=O)c2[nH]ncc2C(C2CC2)N1S(=O)(=O)c1ccc(C(F)(F)F)nc1 (stereo in doubt; 3t) [6-TERT-BUTYL-4-CYCLOPROPYL-5-(6-(TRIFLUOROMETHYL)PYRIDIN-3-YLSULFONYL)-5,6-DIHYDRO-1H-PYRAZOLO[4,3-C]PYRIDIN-7(4H)-ONE (STRUCTURAL MIX)]
